{"source": "ChEMBL document CHEMBL5696442", "about": "“Discovery of type II inhibitors of TGFβ-activated kinase 1 (TAK1) and mitogen-activated protein kinase kinase kinase kinase 2 (MAP4K2)” (J Med Chem, 2015)", "key": {"[1]": {"target": "Serine/threonine-protein kinase Chk2 (Homo sapiens) (UniProt O96017)", "assay": "Inhibition of CHK2 Lys1 labeling site in human A-375 cells at 0.5 uM by KiNativ Profiling analysis relative to control", "format": "cell-based"}, "[2]": {"target": "T1, Dual specificity mitogen-activated protein kinase kinase 6 (Homo sapiens) (UniProt P52564)", "T1 sequence (whole entry)": "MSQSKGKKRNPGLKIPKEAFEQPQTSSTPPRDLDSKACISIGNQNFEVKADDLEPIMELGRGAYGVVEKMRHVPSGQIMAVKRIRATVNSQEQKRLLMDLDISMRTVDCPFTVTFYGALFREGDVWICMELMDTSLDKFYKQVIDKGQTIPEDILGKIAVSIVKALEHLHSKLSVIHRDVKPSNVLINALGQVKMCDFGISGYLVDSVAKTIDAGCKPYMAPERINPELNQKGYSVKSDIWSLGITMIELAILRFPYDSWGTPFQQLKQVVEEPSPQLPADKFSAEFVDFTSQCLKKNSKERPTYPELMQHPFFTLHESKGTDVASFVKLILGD", "assay": "Inhibition of MAP2K6 Lys2 labeling site in human A-375 cells at 0.5 uM by KiNativ Profiling analysis relative to control", "format": "cell-based"}, "[3]": {"target": "Serine/threonine-protein kinase Nek6 (Homo sapiens) (UniProt Q9HC98)", "sequence (Q9HC98 whole entry)": "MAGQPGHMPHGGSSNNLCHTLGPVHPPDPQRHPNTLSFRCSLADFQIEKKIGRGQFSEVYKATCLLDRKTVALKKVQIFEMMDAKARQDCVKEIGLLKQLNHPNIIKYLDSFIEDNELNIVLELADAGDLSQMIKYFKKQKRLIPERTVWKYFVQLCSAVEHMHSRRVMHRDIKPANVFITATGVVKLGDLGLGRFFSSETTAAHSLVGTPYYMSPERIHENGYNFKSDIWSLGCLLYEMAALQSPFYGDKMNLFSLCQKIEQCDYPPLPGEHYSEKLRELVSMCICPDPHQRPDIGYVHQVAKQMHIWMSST", "assay": "Inhibition of NEK6 (unknown origin) at 1 uM by Ambit Kinomescan binding assay relative to control; values are per cent of control"}, "[4]": {"target": "Protein kinase C epsilon type (Homo sapiens) (UniProt Q02156)", "assay": "Inhibition of PRKCE (unknown origin) at 1 uM by Ambit Kinomescan binding assay relative to control; values are per cent of control"}, "[5]": {"target": "T2, Serine/threonine-protein kinase Chk1 (Homo sapiens) (UniProt O14757)", "T2 sequence (whole entry)": "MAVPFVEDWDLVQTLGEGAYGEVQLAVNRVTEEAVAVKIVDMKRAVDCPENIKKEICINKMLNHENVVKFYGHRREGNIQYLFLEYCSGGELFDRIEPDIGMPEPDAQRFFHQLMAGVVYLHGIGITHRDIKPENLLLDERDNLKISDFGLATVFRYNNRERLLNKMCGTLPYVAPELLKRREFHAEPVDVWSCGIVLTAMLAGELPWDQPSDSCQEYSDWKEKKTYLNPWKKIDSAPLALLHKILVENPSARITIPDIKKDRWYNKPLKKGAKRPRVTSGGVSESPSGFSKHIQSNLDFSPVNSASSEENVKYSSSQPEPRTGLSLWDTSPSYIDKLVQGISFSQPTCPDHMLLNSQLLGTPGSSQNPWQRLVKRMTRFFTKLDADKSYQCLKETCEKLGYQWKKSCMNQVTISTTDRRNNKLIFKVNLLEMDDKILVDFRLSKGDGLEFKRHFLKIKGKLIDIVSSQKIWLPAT", "assay": "Inhibition of CHEK1 (unknown origin) at 10 uM by Ambit Kinomescan binding assay"}, "[6]": {"target": "Serine/threonine-protein kinase MRCK beta (Homo sapiens) (UniProt Q9Y5S2)", "sequence (Q9Y5S2 whole entry)": "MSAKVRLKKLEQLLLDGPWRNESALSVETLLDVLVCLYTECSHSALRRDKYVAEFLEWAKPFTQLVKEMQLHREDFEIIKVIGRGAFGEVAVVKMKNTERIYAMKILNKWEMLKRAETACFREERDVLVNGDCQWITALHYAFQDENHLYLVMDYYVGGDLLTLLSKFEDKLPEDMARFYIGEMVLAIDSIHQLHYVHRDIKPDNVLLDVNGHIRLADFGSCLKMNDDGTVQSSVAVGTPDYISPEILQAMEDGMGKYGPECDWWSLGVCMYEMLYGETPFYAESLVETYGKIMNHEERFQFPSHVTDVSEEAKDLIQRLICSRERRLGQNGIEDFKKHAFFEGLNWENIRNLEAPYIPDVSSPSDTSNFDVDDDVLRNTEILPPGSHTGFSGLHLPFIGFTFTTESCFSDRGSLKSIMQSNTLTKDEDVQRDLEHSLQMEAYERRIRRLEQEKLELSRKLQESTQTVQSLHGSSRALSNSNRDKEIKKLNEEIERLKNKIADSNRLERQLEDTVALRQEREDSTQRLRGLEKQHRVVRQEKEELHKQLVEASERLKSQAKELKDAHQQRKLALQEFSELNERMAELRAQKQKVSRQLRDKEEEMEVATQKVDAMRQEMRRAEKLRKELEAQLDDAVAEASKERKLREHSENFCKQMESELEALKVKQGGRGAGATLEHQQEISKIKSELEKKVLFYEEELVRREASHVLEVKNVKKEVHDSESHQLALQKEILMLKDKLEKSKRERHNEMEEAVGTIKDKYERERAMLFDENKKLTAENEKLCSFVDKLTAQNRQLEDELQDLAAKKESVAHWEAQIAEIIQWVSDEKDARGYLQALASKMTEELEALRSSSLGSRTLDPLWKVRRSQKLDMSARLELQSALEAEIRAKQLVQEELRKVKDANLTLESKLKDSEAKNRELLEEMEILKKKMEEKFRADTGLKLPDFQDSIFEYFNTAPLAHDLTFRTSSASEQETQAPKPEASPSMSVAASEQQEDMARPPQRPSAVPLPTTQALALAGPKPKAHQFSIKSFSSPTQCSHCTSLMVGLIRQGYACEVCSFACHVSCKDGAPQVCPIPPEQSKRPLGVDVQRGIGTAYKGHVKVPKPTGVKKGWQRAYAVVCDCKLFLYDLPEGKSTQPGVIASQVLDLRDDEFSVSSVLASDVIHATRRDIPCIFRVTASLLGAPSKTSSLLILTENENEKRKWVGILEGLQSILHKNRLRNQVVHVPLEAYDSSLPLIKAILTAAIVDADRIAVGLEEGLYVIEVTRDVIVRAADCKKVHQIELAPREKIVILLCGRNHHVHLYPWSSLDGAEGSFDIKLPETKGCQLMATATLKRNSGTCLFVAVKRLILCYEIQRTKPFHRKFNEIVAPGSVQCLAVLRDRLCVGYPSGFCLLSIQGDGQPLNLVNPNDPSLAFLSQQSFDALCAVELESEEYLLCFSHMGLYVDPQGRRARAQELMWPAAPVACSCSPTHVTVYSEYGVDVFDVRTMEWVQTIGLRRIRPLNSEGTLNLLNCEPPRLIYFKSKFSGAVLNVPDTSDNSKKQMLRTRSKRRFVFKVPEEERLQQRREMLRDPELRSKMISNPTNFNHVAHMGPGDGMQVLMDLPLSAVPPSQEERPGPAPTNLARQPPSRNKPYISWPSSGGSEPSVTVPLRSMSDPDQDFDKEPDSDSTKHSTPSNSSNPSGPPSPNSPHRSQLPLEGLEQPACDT", "assay": "Inhibition of MRCKB (unknown origin) at 10 uM by Ambit Kinomescan binding assay"}, "[7]": {"target": "T3, Mitogen-activated protein kinase kinase kinase 6 (Homo sapiens) (UniProt O95382)", "T3 sequence (whole entry)": "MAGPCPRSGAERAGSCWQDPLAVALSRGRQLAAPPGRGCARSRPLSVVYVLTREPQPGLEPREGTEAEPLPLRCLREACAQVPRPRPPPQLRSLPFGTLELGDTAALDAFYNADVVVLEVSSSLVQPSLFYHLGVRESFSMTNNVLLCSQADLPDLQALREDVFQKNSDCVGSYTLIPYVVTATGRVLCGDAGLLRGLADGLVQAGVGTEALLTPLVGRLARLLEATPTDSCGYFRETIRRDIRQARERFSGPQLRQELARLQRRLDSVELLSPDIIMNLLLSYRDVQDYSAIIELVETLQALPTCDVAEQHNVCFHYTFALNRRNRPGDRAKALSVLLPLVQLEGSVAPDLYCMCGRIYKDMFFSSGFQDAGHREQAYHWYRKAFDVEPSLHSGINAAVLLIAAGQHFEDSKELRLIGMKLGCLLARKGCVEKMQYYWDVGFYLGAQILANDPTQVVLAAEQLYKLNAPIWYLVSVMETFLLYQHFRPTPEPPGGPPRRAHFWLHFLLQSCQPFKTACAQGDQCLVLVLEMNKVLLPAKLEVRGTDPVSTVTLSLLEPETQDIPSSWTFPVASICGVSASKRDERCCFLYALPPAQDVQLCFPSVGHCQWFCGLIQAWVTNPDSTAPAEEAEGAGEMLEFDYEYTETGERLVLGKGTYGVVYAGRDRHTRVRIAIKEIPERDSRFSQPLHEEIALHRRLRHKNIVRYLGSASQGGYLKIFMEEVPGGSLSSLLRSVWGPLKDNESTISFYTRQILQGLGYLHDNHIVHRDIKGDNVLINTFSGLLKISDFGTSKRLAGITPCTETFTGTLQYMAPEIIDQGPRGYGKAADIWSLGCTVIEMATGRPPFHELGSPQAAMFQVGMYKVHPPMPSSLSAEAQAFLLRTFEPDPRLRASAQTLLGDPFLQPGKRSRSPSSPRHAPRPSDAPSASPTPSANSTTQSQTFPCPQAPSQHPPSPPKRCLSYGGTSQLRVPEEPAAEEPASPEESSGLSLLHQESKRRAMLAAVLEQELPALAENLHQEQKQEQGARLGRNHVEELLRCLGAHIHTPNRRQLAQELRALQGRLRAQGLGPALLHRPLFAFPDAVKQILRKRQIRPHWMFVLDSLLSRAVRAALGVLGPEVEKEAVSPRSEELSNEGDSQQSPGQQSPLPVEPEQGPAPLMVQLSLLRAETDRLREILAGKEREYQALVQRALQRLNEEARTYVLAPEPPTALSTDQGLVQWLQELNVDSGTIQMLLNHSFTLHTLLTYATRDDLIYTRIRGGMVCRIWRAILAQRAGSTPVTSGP", "assay": "Inhibition of MAP3K6 Lys1 labeling site harbouring IAIKEIPER in human A-375 cells at 0.05 uM by KiNativ Profiling analysis relative to control", "format": "cell-based"}, "[8]": {"target": "Cyclin-dependent kinase 2 (Homo sapiens) (UniProt P24941)", "assay": "Inhibition of CDK2 K2 labeling site in human Huh-7 cells at 10 uM by KiNativ Profiling analysis relative to control", "format": "cell-based"}, "[9]": {"target": "Calcium/calmodulin-dependent protein kinase type II subunit delta (Homo sapiens) (UniProt Q13557)", "sequence (Q13557 whole entry)": "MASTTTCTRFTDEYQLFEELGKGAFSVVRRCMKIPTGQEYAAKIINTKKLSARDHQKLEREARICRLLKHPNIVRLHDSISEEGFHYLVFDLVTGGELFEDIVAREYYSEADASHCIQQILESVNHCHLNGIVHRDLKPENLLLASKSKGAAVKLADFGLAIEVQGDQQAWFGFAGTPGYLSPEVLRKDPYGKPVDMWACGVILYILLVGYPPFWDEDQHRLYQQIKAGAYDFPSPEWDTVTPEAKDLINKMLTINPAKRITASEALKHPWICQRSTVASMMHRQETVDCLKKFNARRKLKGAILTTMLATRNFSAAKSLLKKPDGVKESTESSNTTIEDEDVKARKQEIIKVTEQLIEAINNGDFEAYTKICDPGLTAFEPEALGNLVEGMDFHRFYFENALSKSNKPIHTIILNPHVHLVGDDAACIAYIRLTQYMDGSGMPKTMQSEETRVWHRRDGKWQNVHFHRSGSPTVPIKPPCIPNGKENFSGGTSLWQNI", "assay": "Inhibition of CAMK2d K1 labeling site harbouring IPTGQEYAAKIINTKK in human Huh-7 cells at 1 uM by KiNativ Profiling analysis relative to control", "format": "cell-based"}, "[10]": {"target": "RAF proto-oncogene serine/threonine-protein kinase (Homo sapiens, UniProt P04049)", "sequence (P04049 whole entry)": "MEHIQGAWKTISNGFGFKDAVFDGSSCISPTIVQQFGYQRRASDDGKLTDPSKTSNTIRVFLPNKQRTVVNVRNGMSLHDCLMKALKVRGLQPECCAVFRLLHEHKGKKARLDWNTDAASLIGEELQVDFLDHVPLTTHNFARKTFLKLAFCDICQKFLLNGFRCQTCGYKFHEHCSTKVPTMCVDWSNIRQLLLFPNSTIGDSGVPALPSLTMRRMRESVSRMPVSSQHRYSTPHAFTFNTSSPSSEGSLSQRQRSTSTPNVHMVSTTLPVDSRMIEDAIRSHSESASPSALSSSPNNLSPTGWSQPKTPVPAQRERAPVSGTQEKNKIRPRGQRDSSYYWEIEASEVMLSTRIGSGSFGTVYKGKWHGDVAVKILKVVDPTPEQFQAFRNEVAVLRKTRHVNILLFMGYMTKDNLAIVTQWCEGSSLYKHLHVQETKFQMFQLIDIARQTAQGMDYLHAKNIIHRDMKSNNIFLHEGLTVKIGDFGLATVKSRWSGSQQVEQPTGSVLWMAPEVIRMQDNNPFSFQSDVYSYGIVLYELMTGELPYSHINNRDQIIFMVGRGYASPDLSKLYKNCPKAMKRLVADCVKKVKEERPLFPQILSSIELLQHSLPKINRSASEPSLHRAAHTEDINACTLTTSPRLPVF", "assay": "Inhibition of RAF1 Lys2 labeling site in human Huh-7 cell lysate at 1 uM by KiNativ Profiling analysis relative to control", "format": "subcellular"}, "[11]": {"target": "Myosin light chain kinase, smooth muscle (Homo sapiens) (UniProt Q15746)", "sequence (Q15746 whole entry)": "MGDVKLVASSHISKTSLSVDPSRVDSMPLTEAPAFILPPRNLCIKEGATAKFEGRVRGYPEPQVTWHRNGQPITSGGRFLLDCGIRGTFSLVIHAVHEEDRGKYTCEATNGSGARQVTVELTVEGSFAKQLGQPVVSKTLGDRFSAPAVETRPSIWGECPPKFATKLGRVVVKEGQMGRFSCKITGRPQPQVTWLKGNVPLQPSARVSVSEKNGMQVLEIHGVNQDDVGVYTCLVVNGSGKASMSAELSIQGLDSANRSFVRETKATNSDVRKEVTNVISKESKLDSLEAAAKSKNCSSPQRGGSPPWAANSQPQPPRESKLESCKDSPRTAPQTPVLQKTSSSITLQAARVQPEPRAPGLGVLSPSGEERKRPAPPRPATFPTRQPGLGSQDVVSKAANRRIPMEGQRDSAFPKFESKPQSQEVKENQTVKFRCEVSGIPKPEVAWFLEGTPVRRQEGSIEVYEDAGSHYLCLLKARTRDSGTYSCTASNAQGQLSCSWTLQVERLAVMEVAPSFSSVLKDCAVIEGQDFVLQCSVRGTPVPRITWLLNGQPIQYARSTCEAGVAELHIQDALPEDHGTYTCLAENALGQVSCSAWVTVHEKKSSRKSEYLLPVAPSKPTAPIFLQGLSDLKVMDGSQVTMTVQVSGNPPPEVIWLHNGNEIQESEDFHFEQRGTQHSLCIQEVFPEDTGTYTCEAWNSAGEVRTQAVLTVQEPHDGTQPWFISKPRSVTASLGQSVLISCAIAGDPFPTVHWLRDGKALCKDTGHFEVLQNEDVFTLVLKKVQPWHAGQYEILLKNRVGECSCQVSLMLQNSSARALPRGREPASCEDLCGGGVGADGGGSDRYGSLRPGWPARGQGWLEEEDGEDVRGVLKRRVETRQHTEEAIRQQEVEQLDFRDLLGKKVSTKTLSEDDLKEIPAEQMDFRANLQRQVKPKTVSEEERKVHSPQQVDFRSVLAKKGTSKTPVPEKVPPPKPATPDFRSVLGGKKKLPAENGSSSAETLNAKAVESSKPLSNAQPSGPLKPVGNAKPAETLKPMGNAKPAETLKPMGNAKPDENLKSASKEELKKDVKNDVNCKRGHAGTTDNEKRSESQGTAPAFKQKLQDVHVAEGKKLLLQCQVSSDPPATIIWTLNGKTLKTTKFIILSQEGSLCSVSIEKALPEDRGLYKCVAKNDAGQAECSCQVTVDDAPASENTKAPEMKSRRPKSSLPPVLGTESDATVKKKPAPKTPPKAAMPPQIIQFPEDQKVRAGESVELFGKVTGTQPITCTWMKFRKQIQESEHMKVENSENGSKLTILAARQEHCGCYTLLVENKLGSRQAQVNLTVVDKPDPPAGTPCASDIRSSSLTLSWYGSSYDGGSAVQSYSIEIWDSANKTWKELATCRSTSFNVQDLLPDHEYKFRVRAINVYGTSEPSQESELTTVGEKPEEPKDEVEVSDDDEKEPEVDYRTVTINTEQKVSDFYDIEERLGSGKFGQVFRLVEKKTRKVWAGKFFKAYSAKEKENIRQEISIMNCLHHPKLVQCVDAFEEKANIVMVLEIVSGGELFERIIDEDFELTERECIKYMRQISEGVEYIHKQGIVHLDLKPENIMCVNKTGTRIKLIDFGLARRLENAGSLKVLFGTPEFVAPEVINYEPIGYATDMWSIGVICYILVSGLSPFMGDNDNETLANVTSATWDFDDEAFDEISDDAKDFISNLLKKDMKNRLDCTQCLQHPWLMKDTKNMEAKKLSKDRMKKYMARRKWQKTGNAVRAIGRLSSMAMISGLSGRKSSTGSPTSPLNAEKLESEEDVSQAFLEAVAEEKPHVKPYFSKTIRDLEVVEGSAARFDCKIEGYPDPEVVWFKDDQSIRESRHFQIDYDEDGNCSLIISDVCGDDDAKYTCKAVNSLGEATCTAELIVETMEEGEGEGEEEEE", "assay": "Inhibition of smMLCK Lys2 labeling site in human Huh-7 cell lysate at 1 uM by KiNativ Profiling analysis relative to control", "format": "subcellular"}}, "note": "Activity calls are given as the source filed them. No cut-off for these calls is given here."}
{"smiles": "CCN1CCN(Cc2ccc(NC(=O)c3ccc(C)c(/C=C/c4cnc5[nH]ccc5c4OC)c3)cc2C(F)(F)F)CC1", "values": [{"measurement": "inhibition", "setting": "[1]", "value": -4.8, "unit": "%"}, {"measurement": "inhibition", "setting": "[2]", "value": -7, "unit": "%"}, {"measurement": "residual activity", "setting": "[3]", "value": 100, "unit": "%"}, {"measurement": "residual activity", "setting": "[4]", "value": 62, "unit": "%"}]}
{"smiles": "CCN1CCN(Cc2ccc(NC(=O)c3ccc(C)c(Oc4ccnc5[nH]ccc45)c3)cc2C(F)(F)F)CC1", "values": [{"measurement": "inhibition", "setting": "[5]", "value": "inactive"}, {"measurement": "inhibition", "setting": "[6]", "value": "inactive"}, {"measurement": "inhibition", "setting": "[7]", "value": 10.8, "unit": "%"}, {"measurement": "inhibition", "setting": "[8]", "value": 16.2, "unit": "%"}, {"measurement": "inhibition", "setting": "[9]", "value": 4.4, "unit": "%"}]}
{"smiles": "CNc1cc(Oc2cc(C(=O)Nc3cc(N4CCN(C)CC4)cc(C(F)(F)F)c3)ccc2C)ncn1", "values": [{"measurement": "inhibition", "setting": "[10]", "value": 23.2, "unit": "%"}, {"measurement": "inhibition", "setting": "[11]", "value": -5.1, "unit": "%"}]}
